This is an account of results in article PMC6535779, “A Specific, Glycomimetic Langerin Ligand for Human Langerhans Cell Targeting” (ACS Central Science, 2019).

Like-named read-outs stand apart in the source and are kept apart here.

The Kd is the constant that tells how readily two partners part at equilibrium.

The test concerns the target T1, Langerin CRD (Homo sapiens, UniProt Q9UJ71).
T1 construct: made in house
Kind of test: 15N HSQC NMR titration, KD determination. Type of test: binding. As to the method: Receptor Expression and Purification
General remarks. Codon-optimized genes for the expression of Langerin and DC-SIGN in E. coli were purchased from GenScript and Life Technologies, respectively. All growth media or chemicals used for receptor expression and purification were purchased from Carl Roth if not stated otherwise. […]
Langerin and DC-SIGN carbohydrate recognition domain. Expression and purification were conducted as previously published14. Briefly, the monomeric 15N-labeled Langerin and DC-SIGN carbohydrate recognition domains (CRDs) were expressed insolubly in E. coli BL21* (DE3) (Invitrogen). Following enzymatic cell lysis, inclusion bodies were harvested and subsequently solubilized. The sample was centrifuged and the Langerin and DC-SIGN CRDs were refolded overnight via rapid dilution. Next, the sample was dialyzed overnight, centrifuged and purified via StrepTactin affinity chromatography (Iba). After an additional dialysis step overnight, the sample was centrifuged and the buffer was exchanged to 25 mM HEPES with 150 mM NaCl at pH 7.0 using 7 kDa size-exclusion desalting columns (Thermo Scientific) for 19F R2-filtered and 15N HSQC NMR experiments. The concentration of Langerin and DC -SIGN CRDs was determined via UV spectroscopy (A280, 0.1% = 3.19 and A280, 0.1% = 2.98). Purity and monodispersity of Langerin and DC - SIGN CRD samples were analyzed via SDS PAGE and DLS. […]
KI determination. KI values were determined as previously published for Langerin3. Briefly, titration experiments were conducted at a concentration of 0.1 mM of reporter ligand 24 at five competitor concentrations [I]T. Samples were prepared via serial dilution. For the acids GlcNS, GlcNAc-6-OS and GlcNS-6-OS the pH values were monitored and adjusted to 7.8 if necessary.
General remarks. 15N HSQC NMR experiments were conducted on an Ascend 700 MHz spectrometer (Bruker)16. Spectra were processed in NMRPipe17. Data analysis was performed using CCPN Analysis, MatLab and OriginPro15, 18-19. Experiments with the Langerin CRD were performed at a receptor concentration of 100 μM in 25 mM HEPES with 10% D 2O, 150 mM NaCl and 5 mM CaCl2 at pH 7.8 and 25° C. DSS-d6 served as an internal reference at a concentration of 100 μM. Spectra were referenced via the internal spectrometer reference. Spectra were acquired with 128 increments and 32 scans per increments for 150 μl samples in 3 mm sample tubes. The relaxation delay d1 was set to 1.4 s and the acquisition time tacq was set to 100 ms. The W5 Watergate pulse sequence was used for solvent suppression20. The used resonance assignment for the Langerin CRD has been published […]
KD determination. KD values were determined in titration experiments at six ligand concentrations [L]T. Samples were prepared via serial dilution. Chemical shift perturbations CSPs for Langerin CRD resonances in the fast or fast-to-intermediate exchange regime observed upon titration with ligand were calculated via Equation 121.
A standard deviation σ of 0.02 ppm was previously determined for the measurement of chemical shifts in 15N HSQC NMR experiments with the Langerin CRD1. Accordingly, only assigned resonances that […]
for the determination of KD values via Equation 2 in a global two parameter fit21. Standard errors were derived directly from the fitting procedures.
Δv0.5 larger than 10 Hz upon titration in either the 1H or the 15N dimension were not considered for the determination of KD values. CSPmax represents the CSP value observed upon saturation of the binding […]

Setting [1] is: CSPs of fast-exchanging resonances, read-out: KD, Langerin (KD,fast).
The mark [2] stands for this setting: from integrals V of resonances in slow exchange, read-out: KD, Langerin (KD,slow).

T1 sequence (Q9UJ71 202-320 limits assumed): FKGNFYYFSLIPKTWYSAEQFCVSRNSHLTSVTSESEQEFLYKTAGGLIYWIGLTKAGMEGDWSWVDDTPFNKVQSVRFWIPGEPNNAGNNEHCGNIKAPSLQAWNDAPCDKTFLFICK

`Cc1ccc(S(=O)(=O)N[C@H]2C(O)O[C@H](CO)[C@@H](O)[C@@H]2O)cc1` (some centres unmarked) [compound 2]: the Kd was 460 ± 40 µM under setting [1] and 500 ± 200 µM under setting [2].

On to `CC(=O)NCCO[C@@H]1O[C@H](CO)[C@@H](O)[C@H](O)[C@H]1NS(=O)(=O)c1ccc(C)cc1` [compound 16], for which the dissociation constant (Kd) under setting [1] was determined as 230 ± 70 µM and the Kd under setting [2] came to 300 ± 100 µM.

Consider `CC(=O)NCCO[C@H]1O[C@H](CO)[C@@H](O)[C@H](O)[C@@H]1O` [compound 21], for which the Kd under setting [1] came out at 12000 ± 1000 µM.
